The target in assay [1] is [Pyruvate dehydrogenase (acetyl-transferring)] kinase isozyme 1, mitochondrial (Homo sapiens, UniProt Q15118). The assay can be described thus: Inhibition of PDHK1 (unknown origin).
In the next assay the target is Endoplasmin (Homo sapiens, UniProt P14625). As to the kind of experiment: Inhibition of recombinant GRP94 (unknown origin).
Assay [2] addresses T1, Heat shock protein HSP 90-alpha (Homo sapiens, UniProt P07900). As to the kind of experiment: Inhibition of HSP90alpha (unknown origin).
For assay [3], the target named is T1, Heat shock protein HSP 90-alpha. As to the kind of experiment: Binding affinity to HSP90alpha (unknown origin) assessed as dissociation constant by fluorescence polarization assay. In general terms: Fluorescence polarisation rises when a labelled molecule tumbles more slowly, as on binding a larger partner.
A short description of assay [4]: Inhibition of HSP90 (unknown origin) by AlphaScreen assay. Details: species or system Homo sapiens. In general terms: Bead proximity is the source of the signal in Alpha formats.
For assay [5], the target named is Heat shock protein HSP 90-beta (Homo sapiens, UniProt P08238). The assay can be described thus: Binding affinity to HSP90beta (unknown origin) assessed as dissociation constant by fluorescence polarization assay.
Chain of Heat shock protein HSP 90-beta (P08238 whole entry): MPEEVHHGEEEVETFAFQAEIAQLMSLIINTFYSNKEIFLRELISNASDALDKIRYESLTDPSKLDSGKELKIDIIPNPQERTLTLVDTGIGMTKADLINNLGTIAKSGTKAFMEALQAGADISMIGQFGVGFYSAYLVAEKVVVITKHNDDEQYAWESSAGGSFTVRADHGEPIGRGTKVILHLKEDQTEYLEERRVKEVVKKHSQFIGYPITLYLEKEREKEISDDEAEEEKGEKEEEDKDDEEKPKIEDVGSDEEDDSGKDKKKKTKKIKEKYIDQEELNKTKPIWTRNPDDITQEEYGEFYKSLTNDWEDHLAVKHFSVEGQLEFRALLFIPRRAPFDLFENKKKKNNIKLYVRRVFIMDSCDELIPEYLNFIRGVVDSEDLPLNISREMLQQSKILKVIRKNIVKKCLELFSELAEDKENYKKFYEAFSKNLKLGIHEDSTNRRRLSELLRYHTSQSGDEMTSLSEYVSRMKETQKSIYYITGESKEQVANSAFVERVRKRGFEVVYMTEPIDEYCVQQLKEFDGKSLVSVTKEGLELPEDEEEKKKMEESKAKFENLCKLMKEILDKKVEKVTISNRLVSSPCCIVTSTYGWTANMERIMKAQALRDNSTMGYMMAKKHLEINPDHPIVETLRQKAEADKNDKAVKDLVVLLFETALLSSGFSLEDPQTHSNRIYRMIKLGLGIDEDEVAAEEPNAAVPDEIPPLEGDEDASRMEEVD
For assay [6], the target named is Serine/threonine-protein kinase B-raf (Homo sapiens, UniProt P15056). As to the kind of experiment: Inhibition of B-Raf (unknown origin).
Chain of Serine/threonine-protein kinase B-raf (Homo sapiens, UniProt P15056) (P15056 whole entry): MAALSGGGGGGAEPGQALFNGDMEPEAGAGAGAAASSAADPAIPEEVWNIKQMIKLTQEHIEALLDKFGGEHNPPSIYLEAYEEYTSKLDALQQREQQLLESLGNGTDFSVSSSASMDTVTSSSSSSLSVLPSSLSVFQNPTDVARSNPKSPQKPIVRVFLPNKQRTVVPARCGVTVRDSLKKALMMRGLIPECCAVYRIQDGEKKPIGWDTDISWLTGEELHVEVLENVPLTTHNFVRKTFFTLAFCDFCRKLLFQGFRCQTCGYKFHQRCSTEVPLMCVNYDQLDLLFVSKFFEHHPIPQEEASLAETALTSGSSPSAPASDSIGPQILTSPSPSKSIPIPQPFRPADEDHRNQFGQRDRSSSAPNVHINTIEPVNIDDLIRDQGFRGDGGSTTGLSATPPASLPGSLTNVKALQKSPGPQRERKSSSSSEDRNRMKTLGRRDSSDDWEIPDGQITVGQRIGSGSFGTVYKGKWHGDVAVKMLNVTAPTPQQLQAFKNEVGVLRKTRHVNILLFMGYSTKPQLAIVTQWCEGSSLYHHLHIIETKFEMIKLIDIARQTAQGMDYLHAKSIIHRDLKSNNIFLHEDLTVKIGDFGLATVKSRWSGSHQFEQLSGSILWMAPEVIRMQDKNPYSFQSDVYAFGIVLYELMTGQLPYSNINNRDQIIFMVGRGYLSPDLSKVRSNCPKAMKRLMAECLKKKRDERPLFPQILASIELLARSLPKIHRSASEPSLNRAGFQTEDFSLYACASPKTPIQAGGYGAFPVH
Assay [7] concerns the target Serine/threonine-protein kinase B-raf (Homo sapiens, UniProt P15056, V600E). The assay can be described thus: Inhibition of B-Raf V600E mutant (unknown origin).
Assay [8] addresses T1, Heat shock protein HSP 90-alpha. As to the kind of experiment: Binding affinity to recombinant HSP90alpha (unknown origin) assessed as dissociation constant measured for 24 hrs by fluorescence polarization assay.
Assay [9] can be described thus: Inhibition of DNA topoisomerase 2 (unknown origin). Further details: species or system Homo sapiens.
The target of the next assay is Tubulin. The assay can be described thus: Inhibition of tubulin polymerization (unknown origin). The assay is classed as protein-complex assay, Homo sapiens.

As usually defined, the IC50 is the concentration needed to halve the response being measured. Usually Kd stands for the free concentration of one partner at which half of the binding sites on the other are occupied at equilibrium, for simple one-to-one binding.

Chain of [Pyruvate dehydrogenase (acetyl-transferring)] kinase isozyme 1, mitochondrial (Q15118 whole entry): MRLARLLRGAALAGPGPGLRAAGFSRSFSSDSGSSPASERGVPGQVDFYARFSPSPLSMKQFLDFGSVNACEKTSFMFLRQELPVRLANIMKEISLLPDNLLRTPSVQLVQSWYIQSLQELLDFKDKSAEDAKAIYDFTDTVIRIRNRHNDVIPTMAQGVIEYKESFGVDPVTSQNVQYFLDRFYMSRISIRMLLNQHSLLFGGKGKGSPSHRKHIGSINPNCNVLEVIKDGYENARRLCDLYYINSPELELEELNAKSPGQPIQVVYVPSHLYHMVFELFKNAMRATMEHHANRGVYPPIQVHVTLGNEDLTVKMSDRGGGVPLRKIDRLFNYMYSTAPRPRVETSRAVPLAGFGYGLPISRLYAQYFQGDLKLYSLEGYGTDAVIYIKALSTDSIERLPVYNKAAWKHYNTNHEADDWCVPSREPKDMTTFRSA
Chain of Serine/threonine-protein kinase B-raf (Homo sapiens, UniProt P15056, V600E) (P15056 2-766 V600E limits assumed): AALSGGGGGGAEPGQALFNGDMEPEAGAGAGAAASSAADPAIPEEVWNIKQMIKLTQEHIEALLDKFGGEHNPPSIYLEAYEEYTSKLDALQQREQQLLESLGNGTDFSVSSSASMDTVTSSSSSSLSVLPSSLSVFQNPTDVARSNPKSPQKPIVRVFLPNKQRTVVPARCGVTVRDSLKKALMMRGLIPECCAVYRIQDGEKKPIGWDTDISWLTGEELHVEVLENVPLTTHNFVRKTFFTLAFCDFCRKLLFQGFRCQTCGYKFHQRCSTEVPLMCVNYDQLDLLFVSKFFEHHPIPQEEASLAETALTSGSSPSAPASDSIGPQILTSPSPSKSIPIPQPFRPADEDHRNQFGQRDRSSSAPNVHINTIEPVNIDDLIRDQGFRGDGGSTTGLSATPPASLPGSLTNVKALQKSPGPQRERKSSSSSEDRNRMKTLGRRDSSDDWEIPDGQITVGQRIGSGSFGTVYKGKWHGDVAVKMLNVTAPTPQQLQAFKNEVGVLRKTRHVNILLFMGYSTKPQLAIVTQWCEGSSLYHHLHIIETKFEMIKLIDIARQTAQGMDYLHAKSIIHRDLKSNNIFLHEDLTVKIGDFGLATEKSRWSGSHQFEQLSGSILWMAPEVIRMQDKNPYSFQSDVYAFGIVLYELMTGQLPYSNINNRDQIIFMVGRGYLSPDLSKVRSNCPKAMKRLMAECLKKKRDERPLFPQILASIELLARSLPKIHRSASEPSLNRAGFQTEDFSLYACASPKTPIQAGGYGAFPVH
Chain of Endoplasmin (P14625 whole entry): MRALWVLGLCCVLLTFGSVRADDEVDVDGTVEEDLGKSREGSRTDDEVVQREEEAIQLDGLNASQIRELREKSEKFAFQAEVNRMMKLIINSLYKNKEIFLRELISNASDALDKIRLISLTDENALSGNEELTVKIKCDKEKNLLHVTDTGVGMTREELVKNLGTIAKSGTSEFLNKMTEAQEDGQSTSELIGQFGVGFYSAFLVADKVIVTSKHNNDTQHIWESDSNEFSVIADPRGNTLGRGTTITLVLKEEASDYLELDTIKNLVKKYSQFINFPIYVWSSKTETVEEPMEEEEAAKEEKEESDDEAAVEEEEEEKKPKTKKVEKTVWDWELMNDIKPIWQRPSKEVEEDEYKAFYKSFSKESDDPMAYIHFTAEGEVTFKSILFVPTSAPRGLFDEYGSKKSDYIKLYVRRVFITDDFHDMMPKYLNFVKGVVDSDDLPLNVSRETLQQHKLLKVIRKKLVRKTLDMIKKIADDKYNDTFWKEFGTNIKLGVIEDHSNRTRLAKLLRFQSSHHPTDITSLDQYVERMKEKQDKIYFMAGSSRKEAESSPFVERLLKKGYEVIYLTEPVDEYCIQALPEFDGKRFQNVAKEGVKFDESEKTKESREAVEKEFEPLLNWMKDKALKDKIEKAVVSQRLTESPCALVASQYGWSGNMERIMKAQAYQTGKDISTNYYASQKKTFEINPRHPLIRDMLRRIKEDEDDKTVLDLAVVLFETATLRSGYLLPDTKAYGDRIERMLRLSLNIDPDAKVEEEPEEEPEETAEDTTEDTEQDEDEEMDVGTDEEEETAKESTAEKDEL

For the molecule `COc1ccc(CN2CCC(NC(=O)c3noc(-c4cc(Cl)c(O)cc4O)c3-c3ccc(OC)cc3)CC2)cc1`, in assay [1], the IC50 stood at 10 nM.
The molecule `COc1ccc(-c2c(/C=C/C(=O)N3CCN(c4ccccc4OC)CC3)noc2-c2cc(Cl)c(O)cc2O)cc1` returned an IC50 in assay [1] of 600 nM.
For the molecule `CCOc1ccccc1Cn1ccnc1CCc1c(Cl)c(O)cc(O)c1C(=O)OC`, the IC50 at Endoplasmin stood at 200 nM; in [2] it was 8.1 µM.
`Cc1c(C)c(S(=O)(=O)Nc2ccc(Nc3ccnc(N4CCNCC4)n3)cc2)c(C)c2c1OC(C)(C)C2`: in assay [3], the Kd was found to be 5520 nM.
Regarding `CC(C)c1cc(C(=O)N2CCc3c(sc4nc(-c5ccc(NC(=O)Nc6ccc(F)c(Cl)c6)cc5)nc(N5CCOCC5)c34)C2)c(O)cc1O`, the IC50 in [4] is 69 nM.
With `Cc1ccc(Sc2cc(C(=O)N3Cc4ccc(OCCC[N+](C)(C)C)cc4C3)ccc2O)cc1C`, the results for the Kd in assay [3] and in [5] were 340 nM and more than 100 µM, respectively.
Turning to `N#Cc1c(N)nc2sc(C(N)=O)c(N)c2c1-c1ccc(Cl)cc1`, the concentration for half-maximal inhibition (IC50) amounted to 1.5 µM in assay [6] and 2.5 µM in assay [7].
For the molecule `COc1ccc(-c2c(C#N)c(N)nc3sc(C(N)=O)c(N)c23)cc1OC`, the IC50 is 28.9 µM in assay [6] and 9.1 µM in assay [7].
As to `CCOC(=O)c1c(O)cc(O)c(Cl)c1CC(=O)Nc1cc(O)c(OC)cc1O`, the Kd in assay [3] and in assay [8] was 870 nM in each case.
In the case of `CC1(C)CC(=O)C=C(Nc2c(N)[nH]c(=O)[nH]c2=O)C1`, the IC50 in [4] came out at 1780 nM; in assay [9] it was 4.48 µM.
For the molecule `CC(C)c1cc(C(=O)N2Cc3ccccc3C2)c(O)c2ccoc12`, the Kd in assay [3] was more than 100000 nM; in assay [5] it was 0.27 µM.
As to `CN(C)c1ccc(/C=C2\S/C(=N/c3ccccc3Cl)NC2=O)cc1`, the IC50 in assay [4] turned out to be 5200 nM; against Tubulin, 16.7 µM.
Consider `CC(C)c1cc(C(=O)N2Cc3ccc(CN4CCN(C)CC4)cc3C2)c(O)cc1O` [ONALESPIB], for which the Kd in assay [5] worked out at 9 µM.

Source of the values: ChEMBL document CHEMBL5614436, “Targeting HSP90 for Cancer Therapy: Current Progress and Emerging Prospects” (J Med Chem, 2024).
